Molecular target: T1, Myeloid Differentiation factor 2 (MD-2) (Homo sapiens, UniProt Q9Y6Y9)
T1 construct: gene LY96; Recombinant human MD-2 (R&D Systems 1787-MD-050/CF)
T1 sequence (Q9Y6Y9 19-160): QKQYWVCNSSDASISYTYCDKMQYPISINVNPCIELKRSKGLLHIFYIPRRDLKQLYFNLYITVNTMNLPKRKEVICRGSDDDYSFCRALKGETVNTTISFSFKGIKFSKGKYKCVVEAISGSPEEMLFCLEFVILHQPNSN
Test: SPR competition against Lipid A ([…]) on immobilized MD-2
Format: binding
Conditions: read-out: Inhibition Constant (Ki)

Compound | Ki
C[C@]12CC[C@@H](O)C[C@@H]1CC[C@@H]1[C@@H]2CC[C@]2(C)[C@@H](C(=O)CO)CC[C@@H]12 [3α,5α-THDOC] | 57.6 nM
C[C@@]1(O)CC[C@H]2[C@H](CC[C@@H]3[C@@H]2CC[C@]2(C)[C@@H](C(=O)Cn4nccn4)CC[C@@H]32)C1 [SGE 516] | 61.3 nM
CC(=O)[C@H]1CC[C@H]2[C@@H]3CCC4=CC(=O)CC[C@]4(C)[C@H]3CC[C@]12C [progesterone] | 49.4 nM

From PMC12443555, “Structural modifications to pregnane neurosteroids alter inhibition of LPS/Lipid A binding at the MD-2 activation site within the TLR4 signaling complex” (Frontiers in Immunology, 2025)
